Data: patent US20200188388A1, “METHODS AND COMPOSITIONS FOR PO[…] DRUGS AND REDUCING THEIR SIDE EFFECTS” (RVX THERAPEUTICS LTD., priority 2016, published 2020)
“And” between values parts separate entries of the source, which are not always exact repeats. Equal entries are not always repeated. Where two headings read alike, the source gives them in different places.

Legend:
Wistar rats [1] = assay: Open field test, hypokinetic (sedative) or hyperkinetic action (analgesia examples); conditions: for Hyperkinesia or sedataion / Hyperkinesia / Hyperkinesia or sedation: unmarked cells; for Hyperkinesia or sedataion: doses as E12; for Horizontal locomotive activity: control 16.1; for Hyperkinesia or sedation: doses as E6
Method: (§1) To evaluate the hypokinetic (sedative) or hyperkinetic action effects of tested drugs an “open field” (OF) test was applied. In the OF test, the locomotive activity of rats is determined. Animals were placed in the center of square of the illuminated field (1 meter×1 meter) for 3 minutes and the mobility time was recorded in seconds (horizontal activity). […] To quantify the locomotive activity for each dose of test drug(s) an average horizontal activity was calculated.
as §1
To evaluate the hypokinetic (sedative) effects of drugs, “open field” (OF) test was applied. In the OF test, the locomotive activity of rats is determined. Animals were placed in the center of square of the illuminated field (1 meter×1 meter) for 3 minutes and the mobility time was recorded in seconds (horizontal activity). […] To quantify the locomotive activity for each dose of test drug(s), an average horizontal activity was calculated.
Tail-Flick and Open Field Tests were Conducted as Detailed Above.
as §1

male Wistar rats = assay: Opioid hyperalgesia in tail and paw withdrawal tests (% rats)
Wistar rats [2] = assay: Rotenone-induced PD: severe oligokinesia in open field test; format: in vivo, rat; conditions: for Severe oligokinesia (% of group): phenylephrine 0.3 mg/kg oral, oligokinesia ++-+++ in OF test; for Severe oligokinesia, Day 12 / Severe oligokinesia, Day 19: control 100
Method: Locomotive activity of rats was tested in the “open field” test. […] Registration of horizontal and vertical locomotive activity was carried out in first day for rats with high selection locomotive activity (total walking time with not less than 12 seconds and the number of vertical uprights at least 4), 60 minutes before the first administration of rotenone. To identify the rotenone-induced oligokinesia in each experimental group the locomotive activity in the open field test was examined again 2 hours after the administration of rotenone on days 12 and 19 of the experiment.
(§2) Quantification of oligokinesia in points: 0 points—the highest horizontal activity (walking total time more than 12 seconds) and high vertical activity (number of vertical posts) more than 3; 1 point—reducing the horizontal activity (total walking time 7-11 seconds) and a decrease in vertical activity (the number of vertical columns 1-3); 2 points—a significant reduction in horizontal activity (total walking time 2-6 seconds) and the absence of vertical activity (the number of vertical columns 0-1); 3 points—the absence of horizontal activity (total walking time 0-1 seconds) and the absence of vertical activity (number of vertical columns 0). In each experimental group 120 minutes after administration of rotenone on days 12 and 19 of experiment the number of rats with severe oligokinesia (2-3 points) in % of the total number of rats in group was determined.
Locomotive activity of rats was tested in the “open field” test. […] Registration of horizontal and vertical locomotive activity was carried out in first day for rats with high selection locomotive activity (total walking time with not less than 12 seconds and the number of vertical uprights at least 4), 60 minutes before the first administration of rotenone. To identify the rotenone-induced oligokynesia in each experimental group the locomotive activity in the open field test was examined again 2 hours after the administration of rotenone on days 12 and 19 of the experiment.
as §2, with “of oligokynesia” for “of oligokinesia”

Wistar rats [3] = assay: Open field test, hyperkinetic side effects (haloperidol catalepsy examples); format: in vivo, rat; conditions: oral
Method: To evaluate the side hyperkinetic effects of drugs, the test an “open field” (OF) test was applied. […] To quantify the locomotive activity for each dose of the test drug(s), an average horizontal activity was calculated.

Wistar rats [4] = assay: Rotenone model: hyperkinetic side effect in open field test (days 10 and 18); format: in vivo, rat; conditions: for Hyperkmesia (% of group): phenylephrine 0.3 mg/kg oral
Method: Anti-parkinsonian effect of therapy in rats with rotenone-induced PD was estimated according to elimination of extrapyramidal disorders (catalepsy) and oligokinesia (rapid decreased amplitude and velocity of repeated movements) in the “open field” test. The neuro-protective effect of therapy was evaluated by the elimination of ataxia limb dystonia and mortality in rats with rotenone-induced PSP. Hyperkinetic side action (hyper-locomotion) was evaluated by increased horizontal and vertical activity in the open field at the 10th and 18th day of the experiment, calculated in % compared to the first day of the experiment.
Ataxia and limb dystonia registration was performed twice daily, 30 minutes before administration of rotenone and 180 minutes after administration of rotenone. For each experimental group on a daily basis, throughout the whole period of observation number of rats with severe ataxia and limb dystonia (++−+++) and mortality in % of the total number of rats in group was determined. The neuro-protective effect of therapy (effects on rate of ataxia, limb dystonia and lethality) in rats with PSP was determined at days 12 and 19 of the experiment as reducing the number of rats with severe ataxia limb dystonia and mortality in % compared to control. Side hyperkinetic effects were evaluated in the “open field” test. In this test the locomotive activity in rats is determined. […] Registration of horizontal and vertical locomotive activity in OF assay was performed on the 10th and 18th day of the experiment, within 40 minutes after administration of the substance and 5 minutes before administration of rotenone. Side hyperkinetic effects was evaluated by the number of rats with a significant (at least 50% compared with the first day of the experiment) increase in horizontal and vertical activity (hyperkinesia) as a % of the total number of rats in group.
Anti-parkinsonian effect of therapy in rats with rotenone-induced parkinsonism was estimated according to elimination of extrapyramidal disorders (catalepsy) and oligokinesia in the “open field” test. The neuro-protective effect of therapy was evaluated by the elimination of ataxia and mortality in rats with rotenone-induced PSP. Hyperkinetic side action (hyper-locomotion) was evaluated by increased horizontal and vertical activity in the open field at the 10th and 18th day of the experiment, calculated in % compared to the first day of the experiment.
The neuro-protective effect in the experimental groups of rats with rotenone-induced PSP was evaluated due the elimination of ataxia and mortality caused by neurotoxic action of rotenone. Ataxia is typical incoordination neurotoxic effect of rotenone manifested in uncoordinated movements and hyper-locomotion, replaced by hypokinesia and stereotypes, and in severe cases a complete violation of antigravity reflexes, falling on its side and akinesia. Assessment of the severity of ataxia in scores was performed using the following scale: (+) uncoordinated movement, hyperkinesia; (++) significant incoordination, hypokinesia, stereotypes, falling on its side; (+++) complete violation of antigravity reflexes, akinesia. Ataxia registration was performed twice daily, 30 minutes before administration of rotenone and 180 minutes after administration of rotenone. For each experimental group on a daily basis, throughout the whole period of observation number of rats with severe ataxia (++−+++) and mortality in % of the total number of rats in group was determined. The neuro-protective effect of therapy (effects on rate of ataxia and lethality) in rats with PSP was determined at days 12 and 19 of the experiment as reducing the number of rats with severe ataxia and mortality in % compared to control. Side hyperkinetic effects were evaluated in the “open field” test. In this test the locomotive activity in rats is determined. […]

**Q.** `CN(C)CCC=C1c2ccccc2CCc2ccccc21` [Amitriptyline, amitriptyline] was tested. Which Hyperkinesia or sedataion (Wistar rats [1]) did it give?
**A.** 0 % rats

**Q.** What about the Hyperkinesia (Wistar rats [1]; doses as E54) of the same compound?
**A.** 0 % rats

**Q.** And the Hyperalgesia (male Wistar rats; doses as E12)?
**A.** 0 % rats

**Q.** And the Hyperalgesia (male Wistar rats; doses as E54)?
**A.** 0 % rats

**Q.** `CN1CC[C@]23c4c5ccc(O)c4O[C@H]2[C@@H](O)C=C[C@H]3[C@H]1C5` [Morphine, morphine] was tested. Which Horizontal locomotive activity (Wistar rats [1]; oral, doses as E35) did it give?
**A.** 15.5 s and 13.2 s and 7.8 s

**Q.** And the Hyperkinesia or sedation (Wistar rats [1])?
**A.** 0 % rats

**Q.** And the Hyperkinesia or sedataion (Wistar rats [1])?
**A.** 0 % rats

**Q.** What about the Hyperkinesia (Wistar rats [1]; doses as E48) of the same compound?
**A.** 0 % rats

**Q.** What about the Hyperkinesia (Wistar rats [1]; doses as E54) of the same compound?
**A.** 0 % rats

**Q.** For `Cc1c(N(C)CS(=O)(=O)[O-])c(=O)n(-c2ccccc2)n1C.[Na+]` [Dipyrone, dipyrone], which Hyperkinesia or sedataion (Wistar rats [1]) is on record?
**A.** 0 % rats

**Q.** And the Hyperkinesia (Wistar rats [1]; doses as E54)?
**A.** 0 % rats

**Q.** What about the Hyperalgesia (male Wistar rats; doses as E12) of the same compound?
**A.** 0 % rats

**Q.** And the Hyperalgesia (male Wistar rats; doses as E54)?
**A.** 0 % rats

**Q.** For `CNC[C@H](O)c1cccc(O)c1` [Phenylephrine, phenylephrine], which Horizontal locomotive activity (Wistar rats [1]; oral, doses as E35) is on record?
**A.** 15.9 s and 16.3 s and 17.9 s

**Q.** And the Sedation (Wistar rats [1]; oral, doses as E35)?
**A.** 0% of group

**Q.** What about the Hyperkinesia or sedataion (Wistar rats [1]) of the same compound?
**A.** 0 % rats

**Q.** What about the Hyperkinesia (Wistar rats [1]; doses as E54) of the same compound?
**A.** 0 % rats

**Q.** And the “Severe oligokinesia (% of group)” value (Wistar rats [2]; Day 12)?
**A.** 86 % of group

**Q.** What about the “Severe oligokinesia (% of group)” value (Wistar rats [2]; Day 19) of the same compound?
**A.** 100 % of group

**Q.** What about the “Severe oligokinesia, Day 12” value (Wistar rats [2]) of the same compound?
**A.** 86 % of group

**Q.** And the “Severe oligokinesia, Day 19” value (Wistar rats [2])?
**A.** 100 % of group

**Q.** What about the “Severe oligokinesia, Day 12” value (Wistar rats [2]; doses as E38) of the same compound?
**A.** 90 % of group

**Q.** What about the “Severe oligokinesia, Day 19” value (Wistar rats [2]; doses as E38) of the same compound?
**A.** 100 % of group

**Q.** What about the Hyperkinesia (Wistar rats [3]; doses by row as E18) of the same compound?
**A.** 0 % of Rats

**Q.** And the Hyperkinesia (Wistar rats [3]; doses by row as E30)?
**A.** 0 % of Rats

**Q.** And the Hyperkinesia (Wistar rats [3]; doses by row as E60)?
**A.** 0 % of Rats

**Q.** And the Hyperkinesia (Wistar rats [3]; open field 40 min after dosing, doses by row as E1)?
**A.** 0 % of Rats

**Q.** And the Hyperalgesia (male Wistar rats; doses as E12)?
**A.** 0 % rats

**Q.** And the Hyperalgesia (male Wistar rats; doses as E54)?
**A.** 0 % rats

**Q.** What about the “Hyperkinesia, Day 18” value (Wistar rats [4]) of the same compound?
**A.** 0 % of group

**Q.** And the “Hyperkmesia (% of group)” value (Wistar rats [4]; Day 10, locomotive activity in OF test increased more than 50% vs first day)?
**A.** 0 % of group

**Q.** And the “Hyperkmesia (% of group)” value (Wistar rats [4]; Day 18, locomotive activity in OF test increased more than 50% vs first day)?
**A.** 0 % of group

**Q.** What about the “Hyperkinesia, Day 10” value (Wistar rats [4]; doses as E38) of the same compound?
**A.** 0 % of group

**Q.** And the “Hyperkinesia, Day 18” value (Wistar rats [4]; doses as E38)?
**A.** 0 % of group

**Q.** And the “Hyperkinesia, Day 10” value (Wistar rats [4]; locomotive activity in OF test increased more than 50% vs first day)?
**A.** 0 % of group

**Q.** With `CNC[C@H](O)c1ccc(O)c(O)c1` [Epinephrine, epinephrine] as the compound, how does the “Locomotive horizontal activity in open field” value (Wistar rats [1]; I.M., control 15.6, doses by row as E32) read?
**A.** 15.4 s and 15.9 s and 17.6 s

**Q.** What about the Sedation (Wistar rats [1]; I.M., doses by row as E3) of the same compound?
**A.** 0 % of Rats

**Q.** And the Sedation (Wistar rats [1]; I.M., doses by row as E32)?
**A.** 0% of group

**Q.** And the Hyperkinesia or sedation (Wistar rats [1])?
**A.** 0 % rats

**Q.** What about the Hyperkinesia (Wistar rats [1]; doses as E48) of the same compound?
**A.** 0 % rats

**Q.** And the Hyperalgesia (male Wistar rats; doses as E6)?
**A.** 0 % rats

**Q.** What about the Hyperalgesia (male Wistar rats; doses as E48) of the same compound?
**A.** 0 % rats
